Where “and” joins values, the source holds several entries; their conditions need not be identical. Identical values can stand only once. Inconclusive results and toxic doses are left out. Square brackets hold non-standard residues; d marks the D form. Peptide text beside a SMILES is read from it. Abu = CC[CH](N)C(=O)O
Test system: BDF1 mice, B16 melanoma ip, median survival T/C
Assay: NCI In Vivo Anticancer Drug Screen. Data for tumor model B16 Melanoma (intraperitoneal) in B6D2F1 (BDF1) mice
Conditions: endpoint: median survival time, higher = longer survival
Procedure, shortened: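 Each result divides a survival or tumor-size measurement in the compound-treated group by the same measurement in the vehicle group.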

[1] = dose: 25.0 mg/kg/injection, schedule: Q01DX009 (ip), vehicle: Klucel (hydroxypropylcellulose) (HPC)
[2] = dose: 50.0 mg/kg/injection, schedule: Q01DX009 (ip), vehicle: Klucel (hydroxypropylcellulose) (HPC)
[3] = dose: 6.25 mg/kg/injection, schedule: Q01DX009 (ip), vehicle: saline with Tween-80
[4] = dose: 25.0 mg/kg/injection, schedule: Q01DX009 (ip), vehicle: saline with Tween-80
[5] = dose: 12.5 mg/kg/injection, schedule: Q01DX009 (ip), vehicle: saline with Tween-80
[6] = dose: 100.0 mg/kg/injection, schedule: Q01DX009 (ip), vehicle: saline with Tween-80
[7] = dose: 200.0 mg/kg/injection, schedule: Q01DX009 (ip), vehicle: saline with Tween-80
[8] = dose: 100.0 mg/kg/injection, schedule: Q01DX009 (ip), vehicle: Klucel (hydroxypropylcellulose) (HPC)
[9] = dose: 200.0 mg/kg/injection, schedule: Q01DX009 (ip), vehicle: Klucel (hydroxypropylcellulose) (HPC)
[10] = dose: 50.0 mg/kg/injection, schedule: Q01DX009 (ip), vehicle: saline with Tween-80
[11] = dose: 400.0 mg/kg/injection, schedule: Q01DX009 (ip), vehicle: Klucel (hydroxypropylcellulose) (HPC)
[12] = dose: 50.0 mg/kg/injection, schedule: Q01DX009 (ip), vehicle: saline
[13] = dose: 100.0 mg/kg/injection, schedule: Q01DX009 (ip), vehicle: saline
[14] = dose: 150.0 mg/kg/injection, schedule: Q01DX009 (ip), vehicle: Klucel (hydroxypropylcellulose) (HPC)

O=C1N(Br)C(=O)C(c2ccc(Cl)cc2)(c2ccc(Cl)cc2)N1Br
T/C (dose: 6.25 mg/kg/injection, schedule: Q01DX009 (ip), vehicle: Klucel (hydroxypropylcellulose) (HPC)): 103 % of control
T/C (dose: 12.5 mg/kg/injection, schedule: Q01DX009 (ip), vehicle: Klucel (hydroxypropylcellulose) (HPC)): 98 % of control
T/C [1]: 100 % of control
T/C [2]: 88 % of control

O=[N+]([O-])c1ccc(/C=C2/c3cc(Cl)ccc3-c3c(Cl)cc(Cl)cc32)cc1
T/C [3]: 90 % of control
T/C [4]: 88 % of control

Cc1cc(N(CC(C)Br)CC(C)Br)ccc1N=Nc1ccccc1C(=O)O (configuration not stated)
T/C [5]: 165 % of control and 185 % of control

O=S(=O)(O)CNc1ccccc1
T/C (dose: 100.0 mg/kg/injection, schedule: Q04DX003 (ip), vehicle: saline): 104 % of control
T/C (dose: 200.0 mg/kg/injection, schedule: Q04DX003 (ip), vehicle: saline): 97 % of control
T/C (dose: 400.0 mg/kg/injection, schedule: Q04DX003 (ip), vehicle: saline): 106 % of control

OC1(c2ccccc2)c2ccc(Br)cc2-c2cc(Br)ccc21
T/C [6]: 92 % of control
T/C [7]: 88 % of control

O=c1oc2ccccc2c(O)c1C(c1ccc(C(c2c(O)c3ccccc3oc2=O)c2c(O)c3ccccc3oc2=O)cc1)c1c(O)c2ccccc2oc1=O
T/C [2]: 103 % of control
T/C [8]: 100 % of control
T/C [9]: 93 % of control

CCCCCCCCCCCC(c1ccccc1)[N+](C)(C)C (configuration not stated)
T/C (dose: 1.0 mg/kg/injection, schedule: Q01DX009 (ip), vehicle: saline sonified): 105 % of control
T/C (dose: 2.0 mg/kg/injection, schedule: Q01DX009 (ip), vehicle: saline sonified): 110 % of control
T/C (dose: 4.0 mg/kg/injection, schedule: Q01DX009 (ip), vehicle: saline sonified): 105 % of control
T/C (dose: 8.0 mg/kg/injection, schedule: Q01DX009 (ip), vehicle: saline sonified): 100 % of control

CC(=O)[O][Sn]([CH2]c1ccccc1)([CH2]c1ccccc1)[CH2]c1ccccc1
T/C (dose: 1.5 mg/kg/injection, schedule: Q01DX009 (ip), vehicle: other): 101 % of control
T/C (dose: 3.0 mg/kg/injection, schedule: Q01DX009 (ip), vehicle: other): 96 % of control
T/C (dose: 6.0 mg/kg/injection, schedule: Q01DX009 (ip), vehicle: other): 103 % of control
T/C (dose: 6.25 mg/kg/injection, schedule: Q01DX009 (ip), vehicle: other): 111 % of control

O=S(=O)(O)C1CCC[N-]C1.O=S(=O)(O)C1CCC[N-]C1.[Cl][Pt+2]([Cl])([Cl])[Cl] (configuration not stated)
T/C [3]: 110 % of control
T/C [5]: 95 % of control
T/C [4]: 103 % of control
T/C [10]: 106 % of control
T/C [6]: 105 % of control

CN(C)/N=N/c1[nH]ncc1C(N)=O
T/C (dose: 50.0 mg/kg/injection, schedule: Q01DX009 (ip), vehicle: carboxymethylcellulose (CMC)): 105 % of control

COc1ccc(Cl)cc1NC(=O)CC(C)=O
T/C [8]: 100 % of control
T/C [9]: 93 % of control
T/C [11]: 96 % of control

COc1cc2ccncc2cc1O
T/C (dose: 6.25 mg/kg/injection, schedule: Q01DX009 (ip), vehicle: water): 104 % of control
T/C (dose: 12.5 mg/kg/injection, schedule: Q01DX009 (ip), vehicle: water): 95 % of control
T/C (dose: 25.0 mg/kg/injection, schedule: Q01DX009 (ip), vehicle: water): 109 % of control
T/C (dose: 50.0 mg/kg/injection, schedule: Q01DX009 (ip), vehicle: water): 98 % of control

C=C1C/C(=C/C)C(=O)O[C@@H]2CCN3CC=C(COC(=O)[C@]1(C)O)[C@H]23
T/C (dose: 12.5 mg/kg/injection, schedule: Q01DX009 (ip), vehicle: saline): 109 % of control
T/C (dose: 25.0 mg/kg/injection, schedule: Q01DX009 (ip), vehicle: saline): 116 % of control
T/C [12]: 116 % of control
T/C [13]: 107 % of control

CC1(C)N=C(N)N=C(N)N1c1cccc(CC(=O)Nc2ccc(S(=O)(=O)F)cc2)c1
T/C [1]: 103 % of control
T/C [2]: 102 % of control
T/C [8]: 109 % of control
T/C [14]: 109 % of control

CC(=O)Nc1cccc([N+](=O)[O-])c1
T/C [10]: 109 % of control
T/C [6]: 97 % of control
T/C [7]: 97 % of control

CCCCCCCCCCCCCC[N+](C)(C)CCCCCCCCCCCCCC
T/C (dose: 6.0 mg/kg/injection, schedule: Q01DX009 (ip), vehicle: saline): 88 % of control

CCCCCc1cc(O)c2c(c1)OC(C)(C)c1ccc(C)cc1-2
T/C (dose: 64.0 mg/kg/injection, schedule: Q01DX009 (ip), vehicle: saline): 115 % of control
T/C (dose: 128.0 mg/kg/injection, schedule: Q01DX009 (ip), vehicle: saline): 110 % of control
T/C (dose: 256.0 mg/kg/injection, schedule: Q01DX009 (ip), vehicle: saline): 112 % of control
T/C (dose: 512.0 mg/kg/injection, schedule: Q01DX009 (ip), vehicle: saline): 88 % of control

Nc1ccccc1.[C-]#[O+].[C-]#[O+].[C-]#[O+].[C-]#[O+].[C-]#[O+].[Cr]
T/C (dose: 2.5 mg/kg/injection, schedule: Q01DX009 (ip), vehicle: saline): 95 % of control
T/C (dose: 5.0 mg/kg/injection, schedule: Q01DX009 (ip), vehicle: saline): 114 % of control
T/C (dose: 10.0 mg/kg/injection, schedule: Q01DX009 (ip), vehicle: saline): 108 % of control

CCOC(=O)C(=CN1CCCCCC1)C(=O)OCC
T/C [6]: 102 % of control
T/C (dose: 100.0 mg/kg/injection, schedule: Q04DX003 (ip), vehicle: saline with Tween-80): 97 % of control
T/C [7]: 101 % of control
T/C (dose: 200.0 mg/kg/injection, schedule: Q04DX003 (ip), vehicle: saline with Tween-80): 95 % of control
T/C (dose: 400.0 mg/kg/injection, schedule: Q04DX003 (ip), vehicle: saline with Tween-80): 92 % of control

CCC(N)C(=O)NC(C(N)=O)C(C)C (configuration not stated) (H-[Abu]-Val-NH2; configuration not given here)
T/C [12]: 90 % of control
T/C [13]: 100 % of control
T/C (dose: 200.0 mg/kg/injection, schedule: Q01DX009 (ip), vehicle: saline): 110 % of control
T/C (dose: 400.0 mg/kg/injection, schedule: Q01DX009 (ip), vehicle: saline): 100 % of control

O=C1Cc2cccc3c2C(C1)CN3C(=O)c1ccccc1 (configuration not stated)
T/C (dose: 100.0 mg/kg/injection, schedule: Q04DX003 (ip), vehicle: Klucel (hydroxypropylcellulose) (HPC)): 101 % of control
T/C (dose: 200.0 mg/kg/injection, schedule: Q04DX003 (ip), vehicle: Klucel (hydroxypropylcellulose) (HPC)): 106 % of control
T/C (dose: 400.0 mg/kg/injection, schedule: Q04DX003 (ip), vehicle: Klucel (hydroxypropylcellulose) (HPC)): 110 % of control

O=S(=O)(O)c1ccc2cccc(N=Nc3c(O)ccc4ccccc34)c2c1
T/C [5]: 105 % of control
T/C [4]: 102 % of control
T/C [10]: 91 % of control

CC/C(C)=C(/C(=O)O)c1ccccc1
T/C [6]: 110 % of control
T/C [7]: 94 % of control

CNC(=S)N/N=C/CCC/C=N/NC(=S)NC
T/C (dose: 15.9 mg/kg/injection, schedule: Q01DX009 (ip), vehicle: saline with Tween-80): 88 % of control
T/C (dose: 31.8 mg/kg/injection, schedule: Q01DX009 (ip), vehicle: saline with Tween-80): 92 % of control

CCCCCCCCCCCCCCCCCC(=O)Nc1ccn(C2OC(CO)C(O)C2O)c(=O)n1 (configuration not stated)
T/C [5]: 154 % of control
T/C [4]: 165 % of control and 203 % of control

Cc1cccc(C2CCCC2c2ccccc2)c1 (configuration not stated)
T/C (dose: 75.0 mg/kg/injection, schedule: Q01DX009 (ip), vehicle: Klucel (hydroxypropylcellulose) (HPC)): 88 % of control
T/C [14]: 97 % of control
T/C (dose: 300.0 mg/kg/injection, schedule: Q01DX009 (ip), vehicle: Klucel (hydroxypropylcellulose) (HPC)): 100 % of control

Clc1ccc(/C=N\N=C\c2ccc(Cl)c(Cl)c2)cc1Cl
T/C [8]: 90 % of control
T/C [9]: 90 % of control

O=C(Nc1ccc(Cl)cc1)c1cccnc1
T/C [10]: 101 % of control
T/C [6]: 106 % of control
T/C [7]: 94 % of control

Cc1cccc(NC(=O)c2ccc(Cl)cc2)c1C
T/C [8]: 93 % of control
T/C [9]: 89 % of control
T/C [11]: 89 % of control

CCS(=O)(=O)OCCCl
T/C [4]: 104 % of control
T/C [10]: 100 % of control
T/C [6]: 103 % of control

CCN(CCP(c1ccccc1)c1ccccc1)CCP(c1ccccc1)c1ccccc1
T/C (dose: 3.13 mg/kg/injection, schedule: Q01DX009 (ip), vehicle: saline with Tween-80): 119 % of control
T/C [3]: 113 % of control
T/C [5]: 90 % of control and 115 % of control
T/C (dose: 12.5 mg/kg/injection, schedule: Q04DX003 (ip), vehicle: saline with Tween-80): 104 % of control
T/C [4]: 100 % of control
T/C (dose: 25.0 mg/kg/injection, schedule: Q04DX003 (ip), vehicle: saline with Tween-80): 107 % of control
T/C (dose: 50.0 mg/kg/injection, schedule: Q04DX003 (ip), vehicle: saline with Tween-80): 109 % of control
